Laboratory results reported in US20130303509A1, “NAMPT INHIBITORS” (AbbVie Inc., priority 2012, published 2013).

Test system: PC3 cells
Assay: NAMPT Cell Proliferation Assay
Type: cell-based
Conditions: Homo sapiens, PC-3, 120 h, 5 days incubation, cell viability by Cell Titer Glo
Protocol: NAMPT Cell Proliferation Assay
PC3 cells were seeded in 96-well black plates (Corning #3904) at 500 cells)Owell in 90 µl of RPMI media containing 10% heat-inactivated FBS and incubated overnight at 37° C. and 5% CO2 to allow cells to attach to wells. The following day, test compounds were serially diluted in neat DMSO to 1000× final concentrations prior to dilution with RPMI media to 10× and 1% DMSO. […] of the 10× compounds were then transferred to wells containing cells to produce a dose response of 10-fold dilutions from […] to 1×10^−[…]. Cells were incubated for 5 days at 37° C. and 5% CO2, then cell viability was measured using Cell Titer Glo reagent (Promega #G7571). Percent inhibition values were calculated and fitted to a sigmoidal dose response curves using Assay Explorer software to determine IC50s.

| IC50 [nM] | SMILES |
| --- | --- |
| 5.07 | O=C(Nc1ccc(OC2CCN(C(=O)CN3CCOCC3)CC2)cc1)C1CN(c2cccnc2)C1 [Example 60, N-(4-{[1-(morpholin-4-ylacetyl)piperidin-4-yl]oxy}phenyl)-1-(pyridin-3-yl)azetidine-3-carboxamide] |
| 3.52 | O=C(Nc1ccc(OC2CCN(C(=O)c3cccs3)CC2)cc1)C1CN(c2cccnc2)C1 [Example 61, 1-(pyridin-3-yl)-N-(4-{[1-(thiophen-2-ylcarbonyl)piperidin-4-yl]oxy}phenyl)azetidine-3-carboxamide] |
| 14.2 | Cc1ccc(C(=O)N2CCC(Oc3ccc(NC(=O)C4CN(c5cccnc5)C4)cc3)CC2)s1 [Example 62, N-[4-({1-[(5-methylthiophen-2-yl)carbonyl]piperidin-4-yl}oxy)phenyl]-1-(pyridin-3-yl)azetidine-3-carboxamide] |
| 6.35 | O=C(Nc1ccc(OC2CCN(C(=O)c3ccco3)CC2)cc1)C1CN(c2cccnc2)C1 [Example 63, N-(4-{[1-(furan-2-ylcarbonyl)piperidin-4-yl]oxy}phenyl)-1-(pyridin-3-yl)azetidine-3-carboxamide] |
| 6.32 | Cn1cccc1C(=O)N1CCC(Oc2ccc(NC(=O)C3CN(c4cccnc4)C3)cc2)CC1 [Example 64, N-[4-({1-[(1-methyl-1H-pyrrol-2-yl)carbonyl]piperidin-4-yl}oxy)phenyl]-1-(pyridin-3-yl)azetidine-3-carboxamide] |
| 6.38 | CCC(=O)N1CCC(Oc2ccc(NC(=O)C3CN(c4cccnc4)C3)cc2)CC1 [Example 65, N-{4-[(1-propanoylpiperidin-4-yl)oxy]phenyl}-1-(pyridin-3-yl)azetidine-3-carboxamide] |
| 5.81 | CC1(C(=O)N2CCC(Oc3ccc(NC(=O)C4CN(c5cccnc5)C4)cc3)CC2)CC1 [Example 66, N-[4-({1-[(1-methylcyclopropyl)carbonyl]piperidin-4-yl}oxy)phenyl]-1-(pyridin-3-yl)azetidine-3-carboxamide] |
| 386 | CN(C)CCC(=O)N1CCC(Oc2ccc(NC(=O)C3CN(c4cccnc4)C3)cc2)CC1 [Example 67, N-(4-{[1-(N,N-dimethyl-beta-alanyl)piperidin-4-yl]oxy}phenyl)-1-(pyridin-3-yl)azetidine-3-carboxamide] |
| 3.54 | O=C(Nc1ccc(OC2CCN(C(=O)c3nccs3)CC2)cc1)C1CN(c2cccnc2)C1 [Example 68, 1-(pyridin-3-yl)-N-(4-{[1-(1,3-thiazol-2-ylcarbonyl)piperidin-4-yl]oxy}phenyl)azetidine-3-carboxamide] |
| 4.22 | O=C(Nc1ccc(OC2CCN(C(=O)CC3CCCC3)CC2)cc1)C1CN(c2cccnc2)C1 [Example 69, N-(4-{[1-(cyclopentylacetyl)piperidin-4-yl]oxy}phenyl)-1-(pyridin-3-yl)azetidine-3-carboxamide] |
| 3.97 | CC(C)C(C)C(=O)N1CCC(Oc2ccc(NC(=O)C3CN(c4cccnc4)C3)cc2)CC1 (stereo not drawn) [Example 70, N-(4-{[1-(2,3-dimethylbutanoyl)piperidin-4-yl]oxy}phenyl)-1-(pyridin-3-yl)azetidine-3-carboxamide] |
| 72.9 | Cc1ncccc1N1CC(C(=O)Nc2ccc(C3CCN(C(=O)C(C)(C)O)CC3)cc2)C1 [Example 71, N-{4-[1-(2-hydroxy-2-methylpropanoyl)piperidin-4-yl]phenyl}-1-(2-methylpyridin-3-yl)azetidine-3-carboxamide] |
| 5.69 | Cc1ccncc1N1CC(C(=O)Nc2ccc(C3CCN(C(=O)C(C)(C)O)CC3)cc2)C1 [Example 72, N-{4-[1-(2-hydroxy-2-methylpropanoyl)piperidin-4-yl]phenyl}-1-(4-methylpyridin-3-yl)azetidine-3-carboxamide] |
| 1980 | COc1ncccc1N1CC(C(=O)Nc2ccc(C3CCN(C(=O)C(C)(C)O)CC3)cc2)C1 [Example 73, N-{4-[1-(2-hydroxy-2-methylpropanoyl)piperidin-4-yl]phenyl}-1-(2-methoxypyridin-3-yl)azetidine-3-carboxamide] |
| 11.4 | O=C(Nc1ccc(OC2CCN(CC3CC3)CC2)cc1)C1CN(c2cccnc2)C1 [Example 74, N-(4-{[1-(cyclopropylmethyl)piperidin-4-yl]oxy}phenyl)-1-(pyridin-3-yl)azetidine-3-carboxamide] |
| 19.1 | CC(C)CN1CCC(Oc2ccc(NC(=O)C3CN(c4cccnc4)C3)cc2)CC1 [Example 76, N-(4-{[1-(2-methylpropyl)piperidin-4-yl]oxy}phenyl)-1-(pyridin-3-yl)azetidine-3-carboxamide] |
| 21.2 | CCC(CC)CN1CCC(Oc2ccc(NC(=O)C3CN(c4cccnc4)C3)cc2)CC1 [Example 78, N-(4-{[1-(2-ethylbutyl)piperidin-4-yl]oxy}phenyl)-1-(pyridin-3-yl)azetidine-3-carboxamide] |
| 25.5 | CCC(C)CN1CCC(Oc2ccc(NC(=O)C3CN(c4cccnc4)C3)cc2)CC1 (stereo not drawn) [Example 80, N-(4-{[1-(2-methylbutyl)piperidin-4-yl]oxy}phenyl)-1-(pyridin-3-yl)azetidine-3-carboxamide] |
| 9.55 | O=C(Nc1ccc(OC2CCN(CCC3CC3)CC2)cc1)C1CN(c2cccnc2)C1 [Example 82, N-(4-{[1-(2-cyclopropylethyl)piperidin-4-yl]oxy}phenyl)-1-(pyridin-3-yl)azetidine-3-carboxamide] |
| 38.9 | CCC(C)(C)CN1CCC(Oc2ccc(NC(=O)C3CN(c4cccnc4)C3)cc2)CC1 [Example 84, N-(4-{[1-(2,2-dimethylbutyl)piperidin-4-yl]oxy}phenyl)-1-(pyridin-3-yl)azetidine-3-carboxamide] |
| 20.5 | CC(C)(O)C(=O)N1CCC(c2ccc(NC(=O)C3CN(c4ccnnc4)C3)cc2)CC1 [Example 85, N-{4-[1-(2-hydroxy-2-methylpropanoyl)piperidin-4-yl]phenyl}-1-(pyridazin-4-yl)azetidine-3-carboxamide] |
| 69.7 | O=C(Nc1ccc(C2CCN(CC3CCCCC3)CC2)cc1)C1CN(c2cccnc2)C1 [Example 86, N-{4-[1-(cyclohexylmethyl)piperidin-4-yl]phenyl}-1-(pyridin-3-yl)azetidine-3-carboxamide] |
| 31.7 | CC(C)(C)CCN1CCC(c2ccc(NC(=O)C3CN(c4cccnc4)C3)cc2)CC1 [Example 87, N-{4-[1-(3,3-dimethylbutyl)piperidin-4-yl]phenyl}-1-(pyridin-3-yl)azetidine-3-carboxamide] |
| 66.3 | O=C(Nc1ccc(C2CCN(CC3CCCC3)CC2)cc1)C1CN(c2cccnc2)C1 [Example 88, N-{4-[1-(cyclopentylmethyl)piperidin-4-yl]phenyl}-1-(pyridin-3-yl)azetidine-3-carboxamide] |
| 64.6 | CCC(C)(C)CN1CCC(c2ccc(NC(=O)C3CN(c4cccnc4)C3)cc2)CC1 [Example 89, N-{4-[1-(2,2-dimethylbutyl)piperidin-4-yl]phenyl}-1-(pyridin-3-yl)azetidine-3-carboxamide] |
| 60.1 | CCCC(C)CN1CCC(c2ccc(NC(=O)C3CN(c4cccnc4)C3)cc2)CC1 (stereo not drawn) [Example 90, N-{4-[1-(2-methylpentyl)piperidin-4-yl]phenyl}-1-(pyridin-3-yl)azetidine-3-carboxamide] |
| 59.9 | CCCCN1CCC(c2ccc(NC(=O)C3CN(c4cccnc4)C3)cc2)CC1 [Example 91, N-[4-(1-butylpiperidin-4-yl)phenyl]-1-(pyridin-3-yl)azetidine-3-carboxamide] |
